One data set addresses T1, activated BTK enzyme (Homo sapiens, UniProt Q06187).
T1 construct: purchased Life Technologies PV3363
The data set is described as follows: Omnia assay for potency assessment against BTK. It is filed as biochemical. The following applies: BTK inhibition assay; [BTK]=5 nM, [ATP]=40 μM, [Y5-Sox]=10 μM. The essentials:
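Activated BTK (5 nM) was pre-incubated 30 min at room temperature with compound, then reacted with 40 μM ATP (KMapp ~36 μM) and 10 μM Y5-Sox peptide in Tris pH 7.5/MgCl2/EGTA/DTT buffer. Sox fluorescence (ex360/em485) followed for 60 min; IC50 from initial velocities (~0–30 min) by variable-slope fit.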

The target in data set [1] is T2, BTK in Ramos human Burkitt lymphoma cells (Homo sapiens, UniProt Q06187).
T2 construct: Compounds of this invention were assayed in Ramos human Burkitt lymphoma cells; endogenous in cells; host or cells: Ramos human Burkitt lymphoma cells
The data set is described as follows: BTK Ramos cellular assay (BTK occupancy). The format is cell-based. The following applies: concentration producing 50% occupancy of BTK, 1 hour incubation with compound. The essentials:
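Ramos cells at 2×10^6 cells/mL in serum-free medium treated 1 hour with compound (500 to 0.7 nM final), then lysed. Free BTK captured by biotinylated covalent probe (1 μM final, 1 h) on streptavidin plate, detected by anti-Btk ELISA at OD 450 nm against recombinant Btk standard, normalized to total protein; value is concentration giving 50% occupancy.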

Molecules are shown by their SMILES. Bounds are passed on as bounds.

T2 sequence (Q06187 whole entry): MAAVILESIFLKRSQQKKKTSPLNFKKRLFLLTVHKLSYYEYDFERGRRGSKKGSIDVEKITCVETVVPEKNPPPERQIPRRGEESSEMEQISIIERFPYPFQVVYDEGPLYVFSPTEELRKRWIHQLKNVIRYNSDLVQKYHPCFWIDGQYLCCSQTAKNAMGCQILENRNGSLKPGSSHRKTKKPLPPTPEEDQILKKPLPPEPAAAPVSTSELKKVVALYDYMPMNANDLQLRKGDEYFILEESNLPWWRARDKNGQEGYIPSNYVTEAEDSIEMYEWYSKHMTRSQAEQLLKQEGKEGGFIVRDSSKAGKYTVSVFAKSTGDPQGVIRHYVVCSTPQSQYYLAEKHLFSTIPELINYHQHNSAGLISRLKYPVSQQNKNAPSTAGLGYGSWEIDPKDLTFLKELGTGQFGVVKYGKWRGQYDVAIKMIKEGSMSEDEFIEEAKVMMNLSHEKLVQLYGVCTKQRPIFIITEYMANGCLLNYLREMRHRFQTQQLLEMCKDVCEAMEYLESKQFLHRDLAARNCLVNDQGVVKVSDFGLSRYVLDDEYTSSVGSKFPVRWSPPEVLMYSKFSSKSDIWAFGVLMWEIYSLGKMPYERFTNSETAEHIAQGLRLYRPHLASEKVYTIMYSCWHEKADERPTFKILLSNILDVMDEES
T1 sequence (Q06187 whole entry): as above

`C=CC(=O)N1CCC[C@@H](Nc2nc(Nc3ccc4c(c3)CN(CC3CC3)CC4)ncc2F)C1` [Compound I-47, (R)-1-(3-(2-(2-(Cyclopropylmethyl)-1,2,3,4-tetrahydroisoquinolin-7-ylamino)-5-fluoropyrimidin-4-ylamino)piperidin-1-yl)prop-2-en-1-one] gave a melting point of 80 to 82 °C. Also, the IC50 at activated BTK enzyme is < 0.01 µM. In addition, the EC50 in data set [1] is < 0.01 µM.
The molecule `C=CC(=O)N1CCC[C@@H](Nc2nc(Nc3ccc4c(c3)CN(C3CC3)CC4)ncc2F)C1` [Compound I-48, (R)-1-(3-(2-(2-Cyclopropyl-1,2,3,4-tetrahydroisoquinolin-7-ylamino)-5-fluoropyrimidin-4-ylamino)piperidin-1-yl)prop-2-en-1-one] registered a melting point of 105 to 107 °C. The half-maximal inhibitory concentration (IC50) at activated BTK enzyme was < 0.01 µM. In addition, the 50% effective concentration (EC50) in data set [1] was < 0.01 µM.
`C=CC(=O)N1CCC[C@@H](Nc2nc(Nc3ccc4c(c3)CN(C(C)(C)C)CC4)ncc2F)C1` [Compound I-49, (R)-1-(3-(2-(2-tert-Butyl-1,2,3,4-tetrahydroisoquinolin-7-ylamino)-5-fluoropyrimidin-4-ylamino)piperidin-1-yl)prop-2-en-1-one] displayed a melting point of 118 to 121 °C. For the same molecule, the IC50 at activated BTK enzyme is < 0.01 µM. Also, the EC50 in data set [1] is 0.01 to 0.1 µM.
`C=CC(=O)N1CCC[C@@H](Nc2nc(Nc3ccc4c(c3)CN(CC3COC3)CCC4)ncc2F)C1` [Compound I-56, (R)-1-(3-(5-Fluoro-2-(2-(oxetan-3-ylmethyl)-2,3,4,5-tetrahydro-1H-benzo[c]azepin-8-ylamino)pyrimidin-4-ylamino)piperidin-1-yl)prop-2-en-1-one] showed a melting point of 103 to 105 °C. On activated BTK enzyme, the IC50 is < 0.01 µM. Also, the EC50 in data set [1] lay within 0.01 to 0.1 µM.
Regarding `C=CC(=O)N1CCC[C@@H](Nc2nc(Nc3ccc4c(c3)CCN(C)CC4)ncc2F)C1` [Compound I-58, (R)-1-(3-(5-Fluoro-2-(3-methyl-2,3,4,5-tetrahydro-1H-benzo[d]azepin-7-ylamino)pyrimidin-4-ylamino)piperidin-1-yl)prop-2-en-1-one], the melting point lay in the range of 102 to 104 °C. For the same molecule, the concentration for half-maximal inhibition (IC50) on activated BTK enzyme was < 0.01 µM. For the same molecule, the half-maximal effective concentration (EC50) in data set [1] is < 0.01 µM.
For `C=CC(=O)N1CCC[C@@H](Nc2nc(Nc3ccc4c(c3)CCN(CC3COC3)CC4)ncc2F)C1` [Compound I-59, (R)-1-(3-(5-Fluoro-2-(3-(oxetan-3-ylmethyl)-2,3,4,5-tetrahydro-1H-benzo[d]azepin-7-ylamino)pyrimidin-4-ylamino)piperidin-1-yl)prop-2-en-1-one], the melting point was in the range of 104 to 106 °C. The IC50 at activated BTK enzyme was < 0.01 µM. The EC50 in data set [1] is < 0.01 µM.
On to `C=CC(=O)N1CCC[C@@H](Nc2nc(Nc3ccc4c(c3)CN(C)C4=O)ncc2F)C1` [Compound I-61, (R)-5-(4-(1-Acryloylpiperidin-3-ylamino)-5-fluoropyrimidin-2-ylamino)-2-methylisoindolin-1-one], for which the melting point lay within 120 to 122 °C. In addition, the IC50 on activated BTK enzyme was < 0.01 µM. Also, the EC50 in data set [1] is 0.01 to 0.1 µM.
With `C=CC(=O)N1CCC[C@@H](Nc2nc(Nc3ccc4c(c3)CN(C)C4)ncc2C(F)(F)F)C1` [Compound I-64, (R)-1-(3-((2-((2-Methylisoindolin-5-yl)amino)-5-(trifluoromethyl)pyrimidin-4-yl)amino)piperidin-1-yl)prop-2-en-1-one], on activated BTK enzyme, the half-inhibitory concentration (IC50) is < 0.01 µM. Further, in data set [1], the EC50 is < 0.01 µM.
For the molecule `C=CC(=O)N1CCC[C@@H](Nc2nc(Nc3ccc4c(c3)CNC4)ncc2C(F)(F)F)C1` [Compound I-65, (R)-1-(3-((2-(Isoindolin-5-ylamino)-5-(trifluoromethyl)pyrimidin-4-yl)amino)piperidin-1-yl)prop-2-en-1-one], on activated BTK enzyme, the concentration for half-maximal inhibition (IC50) was < 0.01 µM. The concentration for a half-maximal effect (EC50) in data set [1] is < 0.01 µM.
`C#CCN1Cc2ccc(Nc3ncc(F)c(N[C@@H]4CCCN(C(=O)C=C)C4)n3)cc2C1` [Compound I-67, (R)-1-(3-((5-Fluoro-2-((2-(prop-2-yn-1-yl)isoindolin-5-yl)amino)pyrimidin-4-yl)amino)piperidin-1-yl)prop-2-en-1-one]: the IC50 at activated BTK enzyme was < 0.01 µM. Also, the EC50 in data set [1] fell in the range of 0.01 to 0.1 µM.

The term IC50 denotes the concentration that gives 50% inhibition. The term EC50 denotes the concentration that produces a half-maximal response. One may read the melting point as the temperature of the solid-liquid transition.

These data come from patent US20160159774A1 (Celgene Avilomics Research, Inc., priority 2014, published 2016).
